For this assay, the target named is T1, SARS-CoV-2 3CLpro (3CL protease, MBP-tagged; main protease, Mpro) (Severe acute respiratory syndrome coronavirus 2, UniProt P0DTD1).
T1 construct: gene rep
Briefly: fluorogenic protease substrate assay (ex […] / em […] nm). In kind it is biochemical.
On to `CC(=O)O[C@H]1[C@H](Oc2c(-c3ccc(O)c(O)c3)oc3cc(O)cc(O)c3c2=O)O[C@H](CO[C@@H]2O[C@@H](C)[C@H](O)[C@@H](O)[C@H]2O)[C@@H](O)[C@@H]1O` [2”-O-acetylrutin], for which half-maximal inhibition (IC50) required 100 nM.
With `O=C(O)CC(=O)OC[C@H]1O[C@@H](Oc2c(-c3ccc(O)c(O)c3)oc3cc(O)cc(O)c3c2=O)[C@H](O)[C@@H](O)[C@@H]1O` [quercetin 3-(6”-malonyl-glucoside)] the figure was 170 nM; with `CC(=O)OC[C@H]1O[C@@H](Oc2c(-c3ccc(O)c(O)c3)oc3cc(O)cc(O)c3c2=O)[C@H](O)[C@@H](O)[C@@H]1O` [quercetin 3-O-(6“-acetyl-glucoside)], 120 nM.
